Data: patent US12065436B2, “Cardiac sarcomere inhibitors” (Cytokinetics, Inc., priority 2018, dated 2024)

Biological target: bovine cardiac myofibrils (full-length cardiac myosin ATPase in the native sarcomere) (Bos taurus (Bovine), UniProt Q9BE39)
Assay: Skinned bovine cardiac myofibril ATPase assay (PK/LDH-coupled)
Type: biochemical
Settings: Ca2+ activating to 75% of maximal rate; for CDMF75 IC15: concentration giving 15% inhibition; for IC50: read-out: CDMF75 IC50
Method in brief: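 Inhibition of steady-state ATPase read at 340 nm through a PK/LDH-coupled NADH system (0.5 mM NADH, 1.5 mM PEP). Detergent-skinned bovine cardiac myofibrils, 1 mg/mL, were tested at pH 6.8 in PIPES/MgCl2 with 50 μM ATP and calcium adjusted to give pCa50 or pCa75 activation.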

bovine cardiac myofibrils (full-length cardiac myosin ATPase in the native sarcomere), sequence (Q9BE39 whole entry): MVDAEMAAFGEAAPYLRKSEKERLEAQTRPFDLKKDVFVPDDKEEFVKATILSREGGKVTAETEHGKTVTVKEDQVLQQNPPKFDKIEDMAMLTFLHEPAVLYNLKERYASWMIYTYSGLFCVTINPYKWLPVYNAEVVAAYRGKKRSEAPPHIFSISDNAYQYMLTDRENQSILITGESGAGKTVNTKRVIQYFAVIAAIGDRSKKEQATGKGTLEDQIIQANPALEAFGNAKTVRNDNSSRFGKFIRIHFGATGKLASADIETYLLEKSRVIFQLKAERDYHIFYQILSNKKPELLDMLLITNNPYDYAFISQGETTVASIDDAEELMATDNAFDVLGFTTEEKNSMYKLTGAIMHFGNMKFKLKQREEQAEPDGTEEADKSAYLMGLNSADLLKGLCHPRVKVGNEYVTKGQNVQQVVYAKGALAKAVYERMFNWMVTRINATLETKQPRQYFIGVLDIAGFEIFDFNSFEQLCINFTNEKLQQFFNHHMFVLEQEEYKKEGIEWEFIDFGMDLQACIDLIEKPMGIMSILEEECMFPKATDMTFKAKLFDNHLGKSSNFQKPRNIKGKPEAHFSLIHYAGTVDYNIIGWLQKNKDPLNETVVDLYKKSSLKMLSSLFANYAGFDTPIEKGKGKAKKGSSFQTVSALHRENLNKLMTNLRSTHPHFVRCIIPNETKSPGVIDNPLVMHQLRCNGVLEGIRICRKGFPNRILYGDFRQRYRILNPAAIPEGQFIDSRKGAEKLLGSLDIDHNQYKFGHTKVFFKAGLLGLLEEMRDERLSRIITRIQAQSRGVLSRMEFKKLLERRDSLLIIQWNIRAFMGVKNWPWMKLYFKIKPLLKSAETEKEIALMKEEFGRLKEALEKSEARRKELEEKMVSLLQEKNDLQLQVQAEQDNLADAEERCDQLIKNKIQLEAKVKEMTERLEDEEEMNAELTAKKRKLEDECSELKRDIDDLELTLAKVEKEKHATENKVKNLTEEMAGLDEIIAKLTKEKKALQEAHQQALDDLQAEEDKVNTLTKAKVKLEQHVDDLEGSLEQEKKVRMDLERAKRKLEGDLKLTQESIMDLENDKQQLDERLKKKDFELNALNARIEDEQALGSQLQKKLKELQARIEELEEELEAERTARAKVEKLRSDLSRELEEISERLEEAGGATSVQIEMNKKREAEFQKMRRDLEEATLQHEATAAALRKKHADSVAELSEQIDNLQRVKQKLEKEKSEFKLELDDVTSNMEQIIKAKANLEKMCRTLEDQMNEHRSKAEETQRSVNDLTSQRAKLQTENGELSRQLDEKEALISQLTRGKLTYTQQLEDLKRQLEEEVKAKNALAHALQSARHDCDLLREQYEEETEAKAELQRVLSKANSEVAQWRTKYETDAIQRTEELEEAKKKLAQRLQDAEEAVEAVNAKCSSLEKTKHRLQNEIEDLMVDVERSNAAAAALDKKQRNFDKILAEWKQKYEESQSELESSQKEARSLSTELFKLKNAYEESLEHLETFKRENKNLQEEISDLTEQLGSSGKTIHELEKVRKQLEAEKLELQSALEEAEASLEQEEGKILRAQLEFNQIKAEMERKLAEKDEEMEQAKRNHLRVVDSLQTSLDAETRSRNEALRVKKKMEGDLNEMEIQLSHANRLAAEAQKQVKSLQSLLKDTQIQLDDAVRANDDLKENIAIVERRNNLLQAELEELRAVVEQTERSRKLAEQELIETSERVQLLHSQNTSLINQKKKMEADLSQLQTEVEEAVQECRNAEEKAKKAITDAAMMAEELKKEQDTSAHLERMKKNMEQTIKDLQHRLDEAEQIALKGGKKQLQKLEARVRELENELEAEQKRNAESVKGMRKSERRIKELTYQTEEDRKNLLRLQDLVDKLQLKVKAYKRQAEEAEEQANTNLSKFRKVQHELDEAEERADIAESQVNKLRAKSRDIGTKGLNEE
bovine cardiac myofibrils (full-length cardiac myosin ATPase in the native sarcomere), sequence (P85100 whole entry partner): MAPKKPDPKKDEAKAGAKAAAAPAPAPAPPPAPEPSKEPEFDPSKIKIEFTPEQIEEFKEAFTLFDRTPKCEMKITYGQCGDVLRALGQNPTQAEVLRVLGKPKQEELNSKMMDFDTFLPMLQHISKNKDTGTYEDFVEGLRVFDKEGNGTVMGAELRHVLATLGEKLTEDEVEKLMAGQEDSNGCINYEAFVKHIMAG
bovine cardiac myofibrils (full-length cardiac myosin ATPase in the native sarcomere), sequence (Q3SZE5 whole entry partner): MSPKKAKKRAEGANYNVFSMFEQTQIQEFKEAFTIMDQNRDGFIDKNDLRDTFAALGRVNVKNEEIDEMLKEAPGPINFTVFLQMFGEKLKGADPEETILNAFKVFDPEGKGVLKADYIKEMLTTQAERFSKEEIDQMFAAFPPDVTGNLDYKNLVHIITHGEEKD

SMILES | CDMF75 IC15 [µM] | IC50 [µM]
COCc1nc(-c2ccc3c(c2)CC[C@H]3NC(=O)C(F)F)no1 [Compound 437, (R)-2,2-difluoro-N-(5-(5-(methoxymethyl)-1,2,4-oxadiazol-3-yl)-2,3-dihydro-1H-inden-1-yl)acetamide] | 8.8 | 34.4
CC(C)c1nc(-c2ccc3c(c2)CC[C@H]3NC(=O)C(F)F)no1 [Compound 438, (R)-2,2-difluoro-N-(5-(5-isopropyl-1,2,4-oxadiazol-3-yl)-2,3-dihydro-1H-inden-1-yl)acetamide] | 3.7 | 15.8
O=C(N[C@@H]1CCc2cc(-c3noc(C4CC4)n3)ccc21)C(F)F [Compound 439, (R)-N-(5-(5-cyclopropyl-1,2,4-oxadiazol-3-yl)-2,3-dihydro-1H-inden-1-yl)-2,2-difluoroacetamide] | 1.1 | 4.8
O=C(N[C@@H]1CCc2cc(-c3noc(C4CCC4)n3)ccc21)C(F)F [Compound 440, (R)-N-(5-(5-cyclobutyl-1,2,4-oxadiazol-3-yl)-2,3-dihydro-1H-inden-1-yl)-2,2-difluoroacetamide] | 2.7 | 10.7
O=C(N[C@@H]1COc2cc(-c3noc(C(F)F)n3)ccc21)C(F)F [Compound 441, (S)-N-(6-(5-(difluoromethyl)-1,2,4-oxadiazol-3-yl)-2,3-dihydrobenzofuran-3-yl)-2,2-difluoroacetamide] | 3.4 | 13.9
[2H]C([2H])([2H])c1nc(-c2ccc3c(c2)CC[C@H]3NC(=O)C(F)F)no1 [Compound 442, (R)-2,2-difluoro-N-(5-(5-(methyl-d3)-1,2,4-oxadiazol-3-yl)-2,3-dihydro-1H-inden-1-yl)acetamide] | 2.5 | 12.6
CCc1nc(-c2ccc3c(c2)OC[C@H]3NC(C)=O)no1 [Compound 443, (S)-N-(6-(5-ethyl-1,2,4-oxadiazol-3-yl)-2,3-dihydrobenzofuran-3-yl)acetamide] | 0.7 | 2.6
CC(=O)N[C@@H]1COc2cc(-c3noc(C(F)F)n3)ccc21 [Compound 444, (S)-N-(6-(5-(difluoromethyl)-1,2,4-oxadiazol-3-yl)-2,3-dihydrobenzofuran-3-yl)acetamide] | 1.6 | 7.9
[2H]C([2H])([2H])C(=O)N[C@@H]1COc2cc(-c3noc(CC)n3)ccc21 [Compound 445, (S)-N-(6-(5-ethyl-1,2,4-oxadiazol-3-yl)-2,3-dihydrobenzofuran-3-yl)acetamide-2,2,2-d3] | 0.8 | 3
[2H]C([2H])([2H])C(=O)N[C@@H]1CCc2cc(-c3noc(CC)n3)ccc21 [Compound 446, (R)-N-(5-(5-ethyl-1,2,4-oxadiazol-3-yl)-2,3-dihydro-1H-inden-1-yl)acetamide-2,2,2-d3] | 0.7 | 2.6
[2H]C([2H])([2H])C(=O)N[C@@H]1COc2cc(-c3noc(C(F)F)n3)ccc21 [Compound 447, (S)-N-(6-(5-(difluoromethyl)-1,2,4-oxadiazol-3-yl)-2,3-dihydrobenzofuran-3-yl)acetamide-2,2,2-d3] | 1.8 | 9.3
Cc1ncoc1C(=O)N[C@@H]1CCc2cc(-c3noc(C(F)F)n3)ccc21 [Compound 448, (R)-N-(5-(5-(difluoromethyl)-1,2,4-oxadiazol-3-yl)-2,3-dihydro-1H-inden-1-yl)-4-methyloxazole-5-carboxamide] | 0.3 | 0.9
Cc1nc(-c2ccc3c(c2)CC[C@H]3NC(=O)c2ocnc2C)no1 [Compound 449, (R)-4-methyl-N-(5-(5-methyl-1,2,4-oxadiazol-3-yl)-2,3-dihydro-1H-inden-1-yl)oxazole-5-carboxamide] | 0.5 | 1.5
CC(=O)N[C@@H]1COc2cc(-c3noc(C)n3)ccc21 [Compound 450, (S)-N-(6-(5-methyl-1,2,4-oxadiazol-3-yl)-2,3-dihydrobenzofuran-3-yl)acetamide] | 3.2 | 12.4
Cn1nccc1C(=O)N[C@@H]1CCc2cc(C#CC3CC3)ccc21 [Compound 451, (R)-N-(5-(cyclopropylethynyl)-2,3-dihydro-1H-inden-1-yl)-1-methyl-1H-pyrazole-5-carboxamide] | 2.3 | 7.7
CC#Cc1ccc2c(c1)CC[C@H]2NC(=O)c1ccnn1C [Compound 452, (R)-1-methyl-N-(5-(prop-1-yn-1-yl)-2,3-dihydro-1H-inden-1-yl)-1H-pyrazole-5-carboxamide] | 4.3 | 20.3
Cc1ncoc1C(=O)N[C@@H]1COc2cc(-c3noc(C(F)F)n3)ccc21 [Compound 453, (S)-N-(6-(5-(difluoromethyl)-1,2,4-oxadiazol-3-yl)-2,3-dihydrobenzofuran-3-yl)-4-methyloxazole-5-carboxamide] | 0.2 | 0.7

SMILES | CDMF75 IC15 [µM] | IC50 [µM]
Cc1nc(-c2ccc3c(c2)OC[C@H]3NC(=O)c2ocnc2C)no1 [Compound 454, (S)-4-methyl-N-(6-(5-methyl-1,2,4-oxadiazol-3-yl)-2,3-dihydrobenzofuran-3-yl)oxazole-5-carboxamide] | 0.5 | 1.8
CCc1nc(-c2ccc3c(c2)OC[C@H]3NC(=O)c2ocnc2C)no1 [Compound 455, (S)-N-(6-(5-ethyl-1,2,4-oxadiazol-3-yl)-2,3-dihydrobenzofuran-3-yl)-4-methyloxazole-5-carboxamide] | 0.2 | 0.7
Cc1ncoc1C(=O)N[C@@H]1COc2cc(-c3noc(C4CC4)n3)ccc21 [Compound 456, (S)-N-(6-(5-cyclopropyl-1,2,4-oxadiazol-3-yl)-2,3-dihydrobenzofuran-3-yl)-4-methyloxazole-5-carboxamide] | 0.3 | 1.1
CC(=O)N[C@@H]1COc2cc(-c3noc(C4CC4)n3)ccc21 [Compound 457, (S)-N-(6-(5-cyclopropyl-1,2,4-oxadiazol-3-yl)-2,3-dihydrobenzofuran-3-yl)acetamide] | 1.2 | 5.3
CC(=O)N[C@@H]1COc2cc(-c3noc(C4CCC4)n3)ccc21 [Compound 458, (S)-N-(6-(5-cyclobutyl-1,2,4-oxadiazol-3-yl)-2,3-dihydrobenzofuran-3-yl)acetamide] | 2.0 | 9.2
Cn1nccc1C(=O)N[C@@H]1CCc2cc(-c3noc(C4(C)CC4)n3)ccc21 [Compound 459, (R)-1-methyl-N-(5-(5-(1-methylcyclopropyl)-1,2,4-oxadiazol-3-yl)-2,3-dihydro-1H-inden-1-yl)-1H-pyrazole-5-carboxamide] | 0.4 | 1.2
Cn1nccc1C(=O)N[C@@H]1CCc2cc(-c3noc(C4CC4(C)C)n3)ccc21 (stereo partly drawn) [Compound 460, N-((1R)-5-(5-(2,2-dimethylcyclopropyl)-1,2,4-oxadiazol-3-yl)-2,3-dihydro-1H-inden-1-yl)-1-methyl-1H-pyrazole-5-carboxamide] | 1.3 | 5.5
CC(=O)N[C@@H]1COc2cc(-c3noc(C4(C)CC4)n3)ccc21 [Compound 461, (S)-N-(6-(5-(1-methylcyclopropyl)-1,2,4-oxadiazol-3-yl)-2,3-dihydrobenzofuran-3-yl)acetamide] | 1.3 | 6.5
Cc1ncoc1C(=O)N[C@@H]1COc2cc(-c3noc(C4(C)CC4)n3)ccc21 [Compound 462, (S)-4-methyl-N-(6-(5-(1-methylcyclopropyl)-1,2,4-oxadiazol-3-yl)-2,3-dihydrobenzofuran-3-yl)oxazole-5-carboxamide] | 0.4 | 1.4
Cc1ncc(C(=O)N[C@@H]2COc3cc(-c4noc(C5CC5)n4)ccc32)o1 [Compound 463, (S)-N-(6-(5-cyclopropyl-1,2,4-oxadiazol-3-yl)-2,3-dihydrobenzofuran-3-yl)-2-methyloxazole-5-carboxamide] | 0.7 | 2.4
CCc1nc(-c2ccc3c(c2)OC[C@H]3NC(=O)c2cnc(C)o2)no1 [Compound 464, (S)-N-(6-(5-ethyl-1,2,4-oxadiazol-3-yl)-2,3-dihydrobenzofuran-3-yl)-2-methyloxazole-5-carboxamide] | 0.4 | 1.4
Cc1ncc(C(=O)N[C@@H]2CCc3cc(-c4noc(C5(C)CC5)n4)ccc32)o1 [Compound 465, (R)-2-methyl-N-(5-(5-(1-methylcyclopropyl)-1,2,4-oxadiazol-3-yl)-2,3-dihydro-1H-inden-1-yl)oxazole-5-carboxamide] | 0.7 | 2.6
Cc1ncc(C(=O)N[C@@H]2COc3cc(-c4noc(C5(C)CC5)n4)ccc32)o1 [Compound 466, (S)-2-methyl-N-(6-(5-(1-methylcyclopropyl)-1,2,4-oxadiazol-3-yl)-2,3-dihydrobenzofuran-3-yl)oxazole-5-carboxamide] | 0.8 | 2.9
CCc1nc(-c2ccc3c(c2)CC[C@H]3NC(=O)c2coc(COC)n2)no1 [Compound 467, (R)-N-(5-(5-ethyl-1,2,4-oxadiazol-3-yl)-2,3-dihydro-1H-inden-1-yl)-2-(methoxymethyl)oxazole-4-carboxamide] | 2.1 | 8.4
CCc1nc(-c2ccc3c(c2)CC[C@H]3NC(=O)c2coc(CS(C)(=O)=O)n2)no1 [Compound 468, (R)-N-(5-(5-ethyl-1,2,4-oxadiazol-3-yl)-2,3-dihydro-1H-inden-1-yl)-2-((methylsulfonyl)methyl)oxazole-4-carboxamide] | 6.6 | 39.2
CCc1nc(-c2ccc3c(c2)CC[C@H]3NC(=O)c2cn[nH]c2)no1 [Compound 469, (R)-N-(5-(5-ethyl-1,2,4-oxadiazol-3-yl)-2,3-dihydro-1H-inden-1-yl)-1H-pyrazole-4-carboxamide] | 0.3 | 1.1
